Laboratory results: patent US10118902B2 (Sanford Burnham Prebys Medical Discovery Institute, priority 2014, dated 2018)

Target: neurotensin receptor 1 (NTR1) (Homo sapiens (Human), UniProt P30989)
Experiment: NTR1 dose response, high-content imaging beta-arrestin-GFP assay in NTR1-U2OS cells
Assay type: cell-based
Settings: read-out: EC50

Chain of neurotensin receptor 1 (NTR1) (P30989 whole entry, species assumed): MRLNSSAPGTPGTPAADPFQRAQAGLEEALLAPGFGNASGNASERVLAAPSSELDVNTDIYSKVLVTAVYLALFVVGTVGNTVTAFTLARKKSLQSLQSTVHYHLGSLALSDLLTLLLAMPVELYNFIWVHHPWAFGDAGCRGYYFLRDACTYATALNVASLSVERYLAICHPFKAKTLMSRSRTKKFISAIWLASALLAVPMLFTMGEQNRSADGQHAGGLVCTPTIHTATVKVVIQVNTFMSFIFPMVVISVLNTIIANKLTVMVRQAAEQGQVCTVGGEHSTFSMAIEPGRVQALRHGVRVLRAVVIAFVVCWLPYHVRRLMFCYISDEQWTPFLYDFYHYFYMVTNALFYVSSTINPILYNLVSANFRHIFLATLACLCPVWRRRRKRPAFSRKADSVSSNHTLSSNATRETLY

SMILES	EC50 [µM]
CCCN(C)c1cccc2c(N3CCC(c4ccccc4OC)CC3)nc(C3CC3)nc12 [Example 128, {2-cyclopropyl-4-[4-(2-methoxy-phenyl)-piperidin-1-yl]-quinazolin-8-yl}-methyl-propyl-amine]	> 10
COc1ccccc1C1CCN(c2nc(C3CC3)nc3c(N(C)CCN4CCOCC4)cccc23)CC1 [Example 129, {2-cyclopropyl-4-[4-(2-methoxy-phenyl)-piperidin-1-yl]-quinazolin-8-yl}-methyl-(2-morpholin-4-yl-ethyl)-amine]	> 10
COc1ccccc1C1CCN(c2nc(C3CC3)nc3c(Cl)cc(N(C)CCO)cc23)CC1 [Example 130, 2-({8-chloro-2-cyclopropyl-4-[4-(2-methoxy-phenyl)-piperidin-1-yl]-quinazolin-6-yl}-methyl-amino)-ethanol]	< 0.5
CCCN(C)c1cccc2nc(C3CC3)nc(N3CCC(c4ccccc4OC)CC3)c12 [Example 131, {2-cyclopropyl-4-[4-(2-methoxy-phenyl)-piperidin-1-yl]-quinazolin-5-yl}-methyl-propyl-amine]	2 to 10
COc1ccccc1C1CCN(c2nc(C3CC3)nc3ccc(N(C)CCO)c(F)c23)CC1 [Example 132, 2-((2-cyclopropyl-5-fluoro-4-(4-(2-methoxyphenyl)piperidin-1-yl)quinazolin-6-yl)(methyl)amino)ethanol]	0.5 to 2
COc1ccccc1C1CCN(c2nc(C3CC3)nc3c(F)cc(N(C)CCO)cc23)CC1 [Example 133, 2-((2-cyclopropyl-8-fluoro-4-(4-(2-methoxyphenyl)piperidin-1-yl)quinazolin-6-yl)(methyl)amino)ethanol]	< 0.5
COc1ccccc1C1CCN(c2nc(C3CC3)nc3cnc(N(C)CCN4CCOCC4)cc23)CC1 [Example 134, 2-cyclopropyl-4-(4-(2-methoxyphenyl)piperidin-1-yl)-N-methyl-N-(2-morpholinoethyl)pyrido[3,4-d]pyrimidin-6-amine]	0.5 to 2
CCCN(C)c1ccc2c(N3CCC(c4ccccc4OC)CC3)nc(C3CC3)nc2c1 [Example 135, 2-cyclopropyl-4-(4-(2-methoxyphenyl)piperidin-1-yl)-N-methyl-N-propylquinazolin-7-amine]	> 10
COc1ccccc1C1CCN(c2nc(C#CC3CC3)nc3ccc(N(C)CCO)cc23)CC1 [Example 136, 2-((2-(cyclopropylethynyl)-4-(4-(2-methoxyphenyl)piperidin-1-yl)quinazolin-6-yl)(methyl)amino)ethanol]	2 to 10
COc1ccccc1C1CCN(c2nc(C3CC3)nc3cnc(N(C)CCO)cc23)CC1 [Example 137, 2-({2-cyclopropyl-4-[4-(2-methoxy-phenyl)-piperidin-1-yl]-pyrido[3,4-d]pyrimidin-6-yl}-methyl-amino)-ethanol]	< 0.5
COc1ccsc1C1CCN(c2nc(C3CC3)nc3ccc(N(C)CCO)cc23)CC1 [Example 138, 2-((2-cyclopropyl-4-(4-(3-methoxythiophen-2-yl)piperidin-1-yl)quinazolin-6-yl)(methyl)amino)ethanol]	0.5 to 2
CN(CCO)c1ccc2nc(C3(F)CC3)nc(N3CCC(C4CCCCC4)CC3)c2c1 [Example 139, 2-((4-(4-cyclohexylpiperidin-1-yl)-2-(1-fluorocyclopropyl)quinazolin-6-yl)(methyl)amino)ethanol]	> 10
CN(CCO)c1ccc2nc(C3CC3)nc(N3CCN(C4CCCC4O)CC3)c2c1 (stereo not drawn) [Example 140, 2-(4-{2-cyclopropyl-6-[(2-hydroxy-ethyl)-methyl-amino]-quinazolin-4-yl}-piperazin-1-yl)-cyclopentanol]	> 10
CCCN(C)c1ccc2nc(C3CC3)nc(N3CCN(C4CCCC4O)CC3)c2c1 (stereo not drawn) [Example 141, 2-{4-[2-cyclopropyl-6-(methyl-propyl-amino)-quinazolin-4-yl]-piperazin-1-yl}-cyclopentanol]	> 10
CN(CCN1CCOCC1)c1ccc2nc(C3CC3)nc(N3CCN(C4CCCC4O)CC3)c2c1 (stereo not drawn) [Example 142, 2-(4-{2-cyclopropyl-6-[methyl-(2-morpholin-4-yl-ethyl)-amino]-quinazolin-4-yl}-piperazin-1-yl)-cyclopentanol]	> 10
COc1ccccc1C1CCN(c2nc(-c3ccccc3)nc3ccc(N(C)C)cc23)CC1 [Example 143]	> 10
COc1ccccc1C1CCN(c2nc(-c3ccccc3)nc3ccc(N(C)CCO)cc23)CC1 [Example 144, 2-({4-[4-(2-methoxy-phenyl)-piperidin-1-yl]-2-phenyl-quinazolin-6-yl}-methyl-amino)-ethanol]	2 to 10
COCCN(C)c1ccc2nc(-c3ccccc3)nc(N3CCC(c4ccccc4OC)CC3)c2c1 [Example 145, (2-methoxy-ethyl)-{4-[4-(2-methoxy-phenyl)-piperidin-1-yl]-2-phenyl-quinazolin-6-yl}-methyl-amine]	> 10
CCCN(C)c1ccc2nc(-c3ccccc3)nc(N3CCC(c4ccccc4OC)CC3)c2c1 [Example 146, {4-[4-(2-methoxy-phenyl)-piperidin-1-yl]-2-phenyl-quinazolin-6-yl}-methyl-propyl-amine]	> 10
COc1ccccc1C1CCN(c2nc(-c3ccccc3)nc3ccc(N(C)CCN4CCOCC4)cc23)CC1 [Example 147, {4-[4-(2-methoxy-phenyl)-piperidin-1-yl]-2-phenyl-quinazolin-6-yl}-methyl-(2-morpholin-4-yl-ethyl)-amine]	> 10
COc1cccc2c1CN(c1nc(C3CC3)nc3ccc(N(C)CCO)cc13)C2 [Example 149, 2-{[2-cyclopropyl-4-(4-methoxy-1,3-dihydro-isoindol-2-yl)-quinazolin-6-yl]-methyl-amino}-ethanol]	> 10
COc1cccc2c1CCN(c1nc(C3CC3)nc3ccc(N(C)CCO)cc13)CC2 [Example 150, 2-{[2-cyclopropyl-4-(6-methoxy-1,2,4,5-tetrahydro-benzo[d]azepin-3-yl)-quinazolin-6-yl]-methyl-amino}-ethanol]	> 10
COc1ccccc1N(C)C1CCCC1Nc1nc(C2CC2)nc2ccc(N(C)CCO)cc12 (stereo not drawn) [Example 151, 2-[(2-cyclopropyl-4-{2-[(2-methoxy-phenyl)-methyl-amino]-cyclopentylamino}-quinazolin-6-yl)-methyl-amino]-ethanol]	> 10
CCCN(C)c1ccc2nc(C3CC3)nc(NC3CCCC3N(C)c3ccccc3OC)c2c1 (stereo not drawn) [Example 152, 2-cyclopropyl-N4-{2-[(2-methoxy-phenyl)-methyl-amino]-cyclopentyl}-N6-methyl-N6-propyl-quinazoline-4,6-diamine]	> 10
COc1ccccc1N1CCC(Nc2nc(C3CC3)nc3ccc(N(C)CCO)cc23)C1 (stereo not drawn) [Example 154, 2-((2-cyclopropyl-4-((1-(2-methoxyphenyl)pyrrolidin-3-yl)amino)quinazolin-6-yl)(methyl)amino)ethanol]	> 10
CCCN(C)c1ccc2nc(C3CC3)nc(NC3CCN(c4ccccc4OC)C3)c2c1 (stereo not drawn) [Example 155, 2-cyclopropyl-N4-(1-(2-methoxyphenyl)pyrrolidin-3-yl)-N6-methyl-N6-propylquinazoline-4,6-diamine]	> 10
COC(=O)Cc1c(C)nc(C2CC2)nc1N1CCC(c2ccccc2OC)CC1 [Example 156, Methyl 2-(2-cyclopropyl-4-(4-(2-methoxyphenyl)piperidin-1-yl)-6-methylpyrimidin-5-yl)acetate]	> 10
